We go through 13 compounds from patent US20240116985A1, “STAPLED PEPTIDES AND METHODS THEREOF” (priority 2020, published 2024).

In this experiment the target is T1, full-length beta-Catenin (Uniprot ID P35222) (Homo sapiens, UniProt P35222).
T1 construct: 10 nM full-length beta-Catenin (Uniprot ID P35222)
T1 sequence (P35222 1-781): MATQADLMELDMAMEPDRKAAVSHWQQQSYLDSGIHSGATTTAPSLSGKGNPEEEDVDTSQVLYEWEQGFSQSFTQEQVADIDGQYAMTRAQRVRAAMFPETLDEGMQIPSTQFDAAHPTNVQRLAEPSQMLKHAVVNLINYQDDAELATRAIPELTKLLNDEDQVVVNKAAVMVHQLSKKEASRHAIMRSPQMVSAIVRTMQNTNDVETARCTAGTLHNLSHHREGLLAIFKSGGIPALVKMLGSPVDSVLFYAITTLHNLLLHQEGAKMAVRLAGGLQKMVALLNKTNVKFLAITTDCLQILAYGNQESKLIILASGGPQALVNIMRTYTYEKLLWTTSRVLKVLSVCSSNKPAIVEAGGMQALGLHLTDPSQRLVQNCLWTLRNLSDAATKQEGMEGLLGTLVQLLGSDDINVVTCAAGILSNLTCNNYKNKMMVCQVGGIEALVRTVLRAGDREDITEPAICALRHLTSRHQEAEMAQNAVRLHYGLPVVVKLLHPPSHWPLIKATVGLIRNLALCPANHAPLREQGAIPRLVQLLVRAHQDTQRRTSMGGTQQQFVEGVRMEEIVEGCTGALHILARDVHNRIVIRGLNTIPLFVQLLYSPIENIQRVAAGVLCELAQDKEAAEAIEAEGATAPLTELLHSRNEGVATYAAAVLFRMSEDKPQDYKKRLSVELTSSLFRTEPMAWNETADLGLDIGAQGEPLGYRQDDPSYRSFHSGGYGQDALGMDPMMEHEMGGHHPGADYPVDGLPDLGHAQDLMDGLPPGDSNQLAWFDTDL
Kind of experiment: Fluorescence polarization IC50 (beta-catenin / 5FAM-TCF4 10-53 competition). In kind it is binding. The settings on record: fluorescence polarization; read-out: beta-Catenin FP IC50. Background: In fluorescence polarisation assays a small probe gives low polarisation when free and higher when bound to something large.

For the compound `CCCC[C@@H]1NC(=O)[C@H](CC(=O)O)NC(=O)[C@]2(CCCCCCC3(CCCCCCCCOC(=O)N4CC[C@@](C(=O)N[C@@H](Cc5ccccc5C(F)(F)F)C(=O)N[C@@H](Cc5csc6ccccc56)C(=O)N[C@@H](CCC(N)=O)C(N)=O)(C4)NC(=O)[C@H](CC(C)C)NC(=O)[C@H](Cc4ccccc4)NC(=O)[C@H](C)NC(=O)[C@H](C)NC(=O)[C@H](Cc4cccc(C(=O)O)c4)NC(=O)[C@H](CC(=O)O)NC3=O)NC1=O)CCCN2C(C)=O` (stereo partly drawn) [I-2531, Ac-PL3-Asp-nLeu-B5-Asp-3COOHF-Ala-Ala-Phe-Leu-PyrS2-2F3MeF-BztA-Gln-NH2], the IC50 (commonly the midpoint of a concentration-inhibition curve) came to 179 nM. Next, `CC(=O)N1Cc2cccc(c2)OCC=CCCCC2(CCCC=CCCCOC(=O)N3CC[C@@](C(=O)N[C@@H](Cc4ccsc4)C(=O)N[C@@H](Cc4csc5ccccc45)C(=O)N[C@@H](CCC(N)=O)C(N)=O)(C3)NC(=O)[C@H](CC(C)C)NC(=O)[C@H](Cc3ccccc3)NC(=O)[C@H](C)NC(=O)[C@H](C)NC(=O)[C@H](CN(CC(=O)O)CC(F)(F)F)NC(=O)[C@H](CC(=O)O)NC2=O)NC(=O)[C@H](CC(C)(C)C)NC(=O)[C@@H]1CC(=O)O` (stereo partly drawn) [I-2550, Bn3OAllyl-AcAsp-Npg-B5-Asp-TfeGA-Ala-Ala-Phe-Leu-PyrS2-3Thi-BztA-Gln-NH2]: 1720 nM.

`CCCC[C@@H]1NC(=O)[C@H](Cc2ccccc2)NC(=O)[C@H](C)NC(=O)C(C)(C)NC(=O)[C@H](Cc2cccc(C(=O)O)c2)NC(=O)[C@H](CC(=O)O)NC(=O)C2(CCCC=CCCCOC(=O)N3CC[C@@](C(=O)N[C@@H](Cc4ccsc4)C(=O)N[C@@H](Cc4csc5ccccc45)C(=O)N[C@@H](CCC(=O)N4CCC(N5CCCCC5)CC4)C(N)=O)(C3)NC1=O)CCCC=CC[C@]1(CCCN1C(C)=O)C(=O)N[C@@H](CC(=O)O)C(=O)N[C@@H](CC(C)(C)C)C(=O)N2` (stereo partly drawn) [I-2555, Ac-PL3-Asp-Npg-B5-Asp-3COOHF-Aib-Ala-Phe-nLeu-PyrS2-3Thi-BztA-[4Pippip]GlnR-NH2]: the IC50 is 11 nM. With `CC(=O)N[C@]1(C)CCCC=CCCCC2(CCCC=CCCCOC(=O)N3CC[C@@](C(=O)N[C@@H](Cc4ccccc4C(F)(F)F)C(=O)N[C@@H](Cc4csc5ccccc45)C(=O)N[C@@H](CCC(N)=O)C(N)=O)(C3)NC(=O)[C@H](CC(C)C)NC(=O)[C@H](Cc3ccccc3)NC(=O)[C@H](C)NC(=O)[C@H](C)NC(=O)[C@H](Cc3cccc(C(=O)O)c3)NC(=O)[C@H](CC(=O)O)NC2=O)NC(=O)[C@H](CC(C)(C)C)NC(=O)[C@H](CC(=O)O)NC1=O` (stereo partly drawn) [I-2564, Ac-R5-Asp-Npg-B5-Asp-3COOHF-Ala-Ala-Phe-Leu-PyrS2-2F3MeF-BztA-Gln-NH2], the IC50 stood at 259 nM.

Turning to `CC(=O)N1CCC[C@H]1C(=O)N[C@]1(C)CC=CCCCC2(CCCC=CCCCOC(=O)N3CC[C@@](C(=O)N[C@@H](Cc4ccccc4C(F)(F)F)C(=O)N[C@@H](Cc4csc5ccccc45)C(=O)N[C@@H](CCC(N)=O)C(N)=O)(C3)NC(=O)[C@H](CC(C)C)NC(=O)[C@H](Cc3ccccc3)NC(=O)[C@H](C)NC(=O)[C@H](C)NC(=O)[C@H](Cc3cccc(C(=O)O)c3)NC(=O)[C@H](CC(=O)O)NC2=O)NC(=O)[C@H](CC(C)(C)C)NC(=O)[C@H](CC(=O)O)NC1=O` (stereo partly drawn) [I-2566, Ac-Pro-R3-Asp-Npg-B5-Asp-3COOHF-Ala-Ala-Phe-Leu-PyrS2-2F3MeF-BztA-Gln-NH2], the IC50 worked out at 181 nM. The figure for `CC(=O)N1CCC[C@H]1C(=O)N[C@]1(C)CCCC=CCCCC2(CCCC=CCCCOC(=O)N3CC[C@@](C(=O)N[C@@H](Cc4ccccc4C(F)(F)F)C(=O)N[C@@H](Cc4csc5ccccc45)C(=O)N[C@@H](CCC(N)=O)C(N)=O)(C3)NC(=O)[C@H](CC(C)C)NC(=O)[C@H](Cc3ccccc3)NC(=O)[C@H](C)NC(=O)[C@H](C)NC(=O)[C@H](Cc3cccc(C(=O)O)c3)NC(=O)[C@H](CC(=O)O)NC2=O)NC(=O)[C@H](CC(C)(C)C)NC(=O)[C@H](CC(=O)O)NC1=O` (stereo partly drawn) [I-2567, Ac-Pro-R5-Asp-Npg-B5-Asp-3COOHF-Ala-Ala-Phe-Leu-PyrS2-2F3MeF-BztA-Gln-NH2] is 522 nM. On to `CC(=O)N[C@]12CCN(C1)C(=O)OCC=CCCCC1(CCCC=CCCCOC(=O)N3CC[C@@](C(=O)N[C@@H](Cc4ccccc4C(F)(F)F)C(=O)N[C@@H](Cc4csc5ccccc45)C(=O)N[C@@H](CCC(N)=O)C(N)=O)(C3)NC(=O)[C@H](CC(C)C)NC(=O)[C@H](Cc3ccccc3)NC(=O)[C@H](C)NC(=O)[C@H](C)NC(=O)[C@H](Cc3cccc(C(=O)O)c3)NC(=O)[C@H](CC(=O)O)NC1=O)NC(=O)[C@H](CC(C)(C)C)NC(=O)[C@H](CC(=O)O)NC(=O)[C@H](C)NC2=O` (stereo partly drawn) [I-2568, Ac-PyrR-Ala-Asp-Npg-B5-Asp-3COOHF-Ala-Ala-Phe-Leu-PyrS2-2F3MeF-BztA-Gln-NH2], for which the IC50 is 4770 nM.

For `CC(=O)N[C@]12CCN(C1)C(=O)OCC=CCCCC1(CCCC=CCCCOC(=O)N3CC[C@@](C(=O)N[C@@H](Cc4ccccc4C(F)(F)F)C(=O)N[C@@H](Cc4csc5ccccc45)C(=O)N[C@@H](CCC(N)=O)C(N)=O)(C3)NC(=O)[C@H](CC(C)C)NC(=O)[C@H](Cc3ccccc3)NC(=O)[C@H](C)NC(=O)[C@H](C)NC(=O)[C@H](Cc3cccc(C(=O)O)c3)NC(=O)[C@H](CC(=O)O)NC1=O)NC(=O)[C@H](CC(C)(C)C)NC(=O)[C@H](CC(=O)O)NC(=O)[C@H](CCC(=O)O)NC2=O` (stereo partly drawn) [I-2569, Ac-PyrR-Glu-Asp-Npg-B5-Asp-3COOHF-Ala-Ala-Phe-Leu-PyrS2-2F3MeF-BztA-Gln-NH2], the IC50 was determined as 1950 nM. In the case of `CC(=O)N[C@]1(C)CCCCCCC2(CCCCCCCCOC(=O)N3CC[C@@](C(=O)N[C@@H](Cc4ccccc4C(F)(F)F)C(=O)N[C@@H](Cc4csc5ccccc45)C(=O)N[C@@H](CCC(N)=O)C(N)=O)(C3)NC(=O)[C@H](CC(C)C)NC(=O)[C@H](Cc3ccccc3)NC(=O)[C@H](C)NC(=O)[C@H](C)NC(=O)[C@H](Cc3cccc(C(=O)O)c3)NC(=O)[C@H](CC(=O)O)NC2=O)NC(=O)[C@H](CC(C)(C)C)NC(=O)[C@H](CC(=O)O)NC1=O` (stereo partly drawn) [I-2570, Ac-R3-Asp-Npg-B5-Asp-3COOHF-Ala-Ala-Phe-Leu-PyrS2-2F3MeF-BztA-Gln-NH2], the IC50 worked out at 1280 nM. On to `CC(=O)N1CCC[C@H]1C(=O)N[C@]1(C)CCCCCCCCC2(CCCCCCCCOC(=O)N3CC[C@@](C(=O)N[C@@H](Cc4ccccc4C(F)(F)F)C(=O)N[C@@H](Cc4csc5ccccc45)C(=O)N[C@@H](CCC(N)=O)C(N)=O)(C3)NC(=O)[C@H](CC(C)C)NC(=O)[C@H](Cc3ccccc3)NC(=O)[C@H](C)NC(=O)[C@H](C)NC(=O)[C@H](Cc3cccc(C(=O)O)c3)NC(=O)[C@H](CC(=O)O)NC2=O)NC(=O)[C@H](CC(C)(C)C)NC(=O)[C@H](CC(=O)O)NC1=O` (stereo partly drawn) [I-2573, Ac-Pro-R5-Asp-Npg-B5-Asp-3COOHF-Ala-Ala-Phe-Leu-PyrS2-2F3MeF-BztA-Gln-NH2], for which the IC50 was 234 nM. With `CC(=O)N[C@]1(C)CCCCCCCCC2(CCCCCCCCOC(=O)N3CC[C@@](C(=O)N[C@@H](Cc4ccccc4C(F)(F)F)C(=O)N[C@@H](Cc4csc5ccccc45)C(=O)N[C@@H](CCC(N)=O)C(N)=O)(C3)NC(=O)[C@H](CC(C)C)NC(=O)[C@H](Cc3ccccc3)NC(=O)[C@H](C)NC(=O)[C@H](C)NC(=O)[C@H](Cc3cccc(C(=O)O)c3)NC(=O)[C@H](CC(=O)O)NC2=O)NC(=O)[C@H](CC(C)(C)C)NC(=O)[C@H](CC(=O)O)NC(=O)[C@H](C)NC1=O` (stereo partly drawn) [I-2574, Ac-R5-Ala-Asp-Npg-B5-Asp-3COOHF-Ala-Ala-Phe-Leu-PyrS2-2F3MeF-BztA-Gln-NH2], the IC50 worked out at 2960 nM. Regarding `CC(=O)N1CCC[C@H]1C(=O)N[C@]1(C)CCCC=CCCCC2(CCCC=CCCCOC(=O)N3CC[C@@](C(=O)N[C@@H](Cc4ccccc4C(F)(F)F)C(=O)N[C@@H](Cc4csc5ccccc45)C(=O)N[C@@H](CCC(N)=O)C(N)=O)(C3)NC(=O)[C@H](CC(C)C)NC(=O)[C@H](Cc3ccccc3)NC(=O)[C@H](C)NC(=O)[C@H](C)NC(=O)[C@H](Cc3cccc(C(=O)O)c3)NC(=O)[C@H](CC(=O)O)NC2=O)NC(=O)[C@H](CC(C)(C)C)NC(=O)[C@H](CC(=O)O)NC(=O)[C@H](CCC(=O)O)NC1=O` (stereo partly drawn) [I-2575, Ac-Pro-R5-Glu-Asp-Npg-B5-Asp-3COOHF-Ala-Ala-Phe-Leu-PyrS2-2F3MeF-BztA-Gln-NH2], the IC50 is 8160 nM. As for `CC(=O)N1CCC[C@]12CC=CCCCC1(CCCC=CCCOC(=O)N3CCC(C(=O)N[C@@H](Cc4ccccc4C(F)(F)F)C(=O)N[C@@H](Cc4csc5ccccc45)C(=O)N[C@@H](CCC(N)=O)C(N)=O)(CC3)NC(=O)[C@H](CC(C)C)NC(=O)[C@H](Cc3ccccc3)NC(=O)[C@H](C)NC(=O)[C@H](C)NC(=O)[C@H](Cc3cccc(C(=O)O)c3)NC(=O)[C@H](CC(=O)O)NC1=O)NC(=O)[C@H](CC(C)(C)C)NC(=O)[C@H](CC(=O)O)NC2=O` (stereo partly drawn) [I-2580, Ac-PL3-Asp-Npg-B5-Asp-3COOHF-Ala-Ala-Phe-Leu-SPip1-2F3MeF-BztA-Gln-NH2], the IC50 stood at 993 nM.
